# Test results reported in patent publication US7687538B2 (priority 2004, dated 2010).
# What was measured:
# κ-opioid receptor (KOR) = κ-opioid receptor (KOR) (Homo sapiens, UniProt P41145); experiment: biochemical; assay type: binding
# [1] = biological target: kappa opiate receptor (KOR) (Homo sapiens, UniProt P41145); conditions: Roth 2002; cited from earlier work
# [2] = Siebert 1994; cited from earlier work
# Sequence of κ-opioid receptor (KOR) (P41145 whole entry): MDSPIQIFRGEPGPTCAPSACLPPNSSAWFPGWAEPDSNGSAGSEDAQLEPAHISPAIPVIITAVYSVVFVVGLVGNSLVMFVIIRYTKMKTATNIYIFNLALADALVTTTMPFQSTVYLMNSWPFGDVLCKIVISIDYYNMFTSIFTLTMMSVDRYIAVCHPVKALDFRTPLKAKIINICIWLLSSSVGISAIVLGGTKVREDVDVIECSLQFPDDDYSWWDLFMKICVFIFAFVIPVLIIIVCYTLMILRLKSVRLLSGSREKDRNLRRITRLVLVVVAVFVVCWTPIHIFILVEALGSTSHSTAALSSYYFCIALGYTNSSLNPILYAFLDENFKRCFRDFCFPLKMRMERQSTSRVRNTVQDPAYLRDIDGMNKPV
# Sequence of kappa opiate receptor (KOR) (P41145 whole entry): as above
SMILES,Ki (κ-opioid receptor (KOR)),agonist character at the kappa opiate receptor [1],human dose (psychedelic agent) [2]
COC(=O)[C@@H]1C[C@H](S)C(=O)[C@H]2[C@@]1(C)CC[C@H]1C(=O)O[C@H](c3ccoc3)C[C@]21C [2-Thiol salvinorin B],11.2 nM,–,–
COC(=O)[C@@H]1C[C@H](OC(C)=O)C(=O)[C@H]2[C@@]1(C)CC[C@H]1C(=O)O[C@H](c3ccoc3)C[C@]21C [Salvinorin A],–,full agonist,0.5 to 1 mg
COC(=O)[C@@H]1C[C@H](SC(C)=O)C(=O)[C@H]2[C@@]1(C)CC[C@H]1C(=O)O[C@H](c3ccoc3)C[C@]21C [Salvinorinyl-2-thioacetate],7.9 nM,–,–
